From patent publication US4703057A, “Beta-blocking thiochroman derivatives, compositions and method of use therefor” (ADIR Et Compagnie, priority 1985, dated 1987) come the findings set out here.

The target of the assay is beta1 (right auricle of rats, stimulated by isoprenaline) (Rattus norvegicus, UniProt P18090). The conditions noted are these: for log (x - 1): Van Rossum's table; for Kb: agonist isoprenaline; for type of antagonism towards isoprenaline: simple displacement of curves to the right.
Sequence of beta1 (right auricle of rats, stimulated by isoprenaline) (P18090 whole entry): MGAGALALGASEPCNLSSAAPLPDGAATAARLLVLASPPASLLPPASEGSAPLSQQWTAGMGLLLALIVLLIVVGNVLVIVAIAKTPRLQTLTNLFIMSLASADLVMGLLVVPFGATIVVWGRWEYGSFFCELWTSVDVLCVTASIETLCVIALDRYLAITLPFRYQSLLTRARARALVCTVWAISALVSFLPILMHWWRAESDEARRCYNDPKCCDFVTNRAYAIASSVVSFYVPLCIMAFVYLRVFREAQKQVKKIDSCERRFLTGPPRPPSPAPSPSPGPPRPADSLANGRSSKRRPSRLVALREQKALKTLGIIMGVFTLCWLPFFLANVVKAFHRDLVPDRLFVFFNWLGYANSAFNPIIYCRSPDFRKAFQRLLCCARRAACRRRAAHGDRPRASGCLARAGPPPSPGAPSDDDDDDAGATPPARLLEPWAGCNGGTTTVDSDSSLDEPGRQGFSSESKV
Setting [1] is: antagonist concentration 10^-8 M.
Where [2] appears, read: pA2 (overall), n = 11, all antagonist concentrations.
The mark [3] stands for this setting: pA2, single preparation, antagonist concentration 10^-8 M.
Where [4] appears, read: antagonist concentration 3 × 10^-8 M.
Setting [5] is: antagonist concentration 3 × 10^-9 M.

Structures are written as SMILES. Values joined by “and” are separate entries in the source; they are usually repeats but may differ in a detail not shown here. Equal values may be shown once. Read-outs that look alike come from different tables or passages of the source.

The term Kb denotes the equilibrium dissociation constant of an antagonist, usually derived from a functional assay. Higher therefore signals lower antagonist affinity.

`CC(C)(C)NCC(O)COc1cccc2c1SCCC2O` (centres unmarked) [Compound of the formula I, 1-tert.-butylamino-3-(4-hydroxy-8-thiochromanyloxy)-2-propanol]: the “type of antagonism towards isoprenaline” value is listed as “competitive type”. Also, under setting [1], the “x (displacement of the curve)” value was 37.5 mm and 38 mm and 31 mm; the “log (x - 1)” value was 1.22 and 1.24 and 0.99. The same molecule showed a Kb under setting [2] of 0.575 nM. Besides, the Kb under setting [3] was 0.603 nM and 0.575 nM and 1.02 nM. Where the note is “pharmacological tests in vitro, in words”, the beta1-adrenolytic activity entry is “very high beta1 -adrenolytic activity”. In addition, the “beta1-adrenolytic / beta1-antagonistic activity relative to tertatolol” value (relative to tertatolol) was “twice that of tertatolol”.
Regarding `CC(C)(C)NCC(O)COc1cccc2c1SCCC2` (centres unmarked) [Tertatolol, 1-tert.-butylamino-3-(8-thiochromanyloxy)-2-propanol], the “type of antagonism towards isoprenaline” value is “competitive type”. Under setting [4], the “x (displacement of the curve)” value was 35 mm and 32.5 mm; the “log (x - 1)” value is 1.13 and 1.05. For the same molecule, under setting [5], the “x (displacement of the curve)” value was 25.5 mm and 27 mm and 19.5 mm; the “log (x - 1)” value was 0.78 and 0.84 and 0.54. In addition, under setting [1], the “x (displacement of the curve)” value is 41 mm and 46 mm and 47 mm; the “log (x - 1)” value is 1.35 and 1.52 and 1.55. The “x (displacement of the curve)” value (antagonist concentration 10^-9 M) is 6 mm and 7 mm and 3.5 mm. Further, the Kb under setting [2] was determined as 0.912 nM. In addition, the Kb (pA2, single preparation, antagonist concentration 3 × 10^-8 M) was 2.24 nM and 2.69 nM. In addition, for the setting “pA2, single preparation, antagonist concentration 3 × 10^-9 M”, the Kb is 0.501 nM and 0.437 nM and 0.871 nM. In addition, the Kb under setting [3] is 0.447 nM and 0.302 nM and 0.282 nM. Moreover, under “relative to propanolol”, the “times more powerful than propanolol” value was 6 times.
